pIC50: −log10 of the molar value. Activity calls are given as the source filed them. The calls are words filed in the database; no cut-off is given here.
Tests used:
[1] = Glutathione peroxidase-like activity in pH 7.5 potassium phosphate buffer assessed as catalytic reduction of H2O2 by measuring initial velocity at 25 degreeC using GSH in presence of NADPH by UV absorbance analysis (reference value: 30.41+/- 2.06 microM/min); assay type: functional
[2] = biological target: Beta-secretase 1 (Homo sapiens, UniProt P56817); assay: Inhibition of BACE-1 (unknown origin) using Mca-Ser-Glu-Val-Asn-Leu-Asp-Ala-Glu-Phe-Lys-Dnp-OH as substrate preincubated for 30 mins followed by substrate addition and measured after 1 hr by FRET assay
[3] = system: PC-12; assay: Cytotoxicity against rat PC-12 cells at 25 uM incubated for 24 hrs by MTT assay; assay type: cell-based; settings: pc-12, 24 h
[4] = system: PC-12; assay: Neuroprotective activity against H2O2-induced cell damage in rat PC-12 cells assessed as decrease in cell death at 10 uM pretreated for 12 hrs followed by H2O2 challenge by MTT assay; assay type: functional, cell-based
[5] = in vitro; settings: PAMPA
[6] = system: PC-12; assay: Protection against H2O2-induced ROS accumulation in rat PC-12 cells assessed as intracellular ROS level by measuring mean fluorescence intensity pretreated for 12 hrs followed by H2O2 challenge by DCFH-DA staining based flow cytometry; assay type: functional, cell-based; settings: dose 2.5-10 µM
[7] = system: PC-12; assay: Cytoprotective activity against H2O2- induced cell death in rat PC-12 cells assessed as increase in viable cells pretreated for 12 hrs followed by H2O2 challenge by MTT assay; assay type: functional, cell-based; settings: dose 2.5-10 µM
[8] = system: PC-12; assay: Protection against 6-OHDA-induced ROS accumulation in rat PC-12 cells assessed as intracellular ROS level by measuring mean fluorescence intensity pretreated for 12 hrs followed by 6-OHDA challenge by DCFH-DA staining based flow cytometry; assay type: functional, cell-based; settings: dose 2.5-10 µM
[9] = system: HEK293; assay: Inhibition of amyloid beta(1 to 40) secretion in human HEK293T cells transfected with human APP harboring Swedish double mutant K595N/M596L at 1 uM measured after 24 hrs by ELISA; assay type: functional, cell-based

Sequence of Beta-secretase 1 (P56817 whole entry): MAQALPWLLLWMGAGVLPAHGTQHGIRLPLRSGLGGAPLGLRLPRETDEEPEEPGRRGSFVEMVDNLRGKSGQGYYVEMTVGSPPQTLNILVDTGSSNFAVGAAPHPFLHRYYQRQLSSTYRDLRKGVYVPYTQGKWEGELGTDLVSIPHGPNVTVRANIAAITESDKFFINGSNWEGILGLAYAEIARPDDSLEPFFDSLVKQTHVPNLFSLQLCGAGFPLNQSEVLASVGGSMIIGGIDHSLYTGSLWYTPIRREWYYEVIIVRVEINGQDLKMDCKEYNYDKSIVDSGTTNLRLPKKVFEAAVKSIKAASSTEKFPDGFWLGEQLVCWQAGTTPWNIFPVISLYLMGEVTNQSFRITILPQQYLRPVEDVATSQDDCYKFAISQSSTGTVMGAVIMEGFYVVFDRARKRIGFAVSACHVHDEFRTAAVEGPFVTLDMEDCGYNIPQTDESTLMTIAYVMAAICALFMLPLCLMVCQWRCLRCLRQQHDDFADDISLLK

SMILES: CN1C(N)=N[C@](C)(c2cc(-n3[se]c4c(F)cccc4c3=O)ccc2F)CS1(=O)=O
- V0 [1]: 242 µM/min

SMILES: COc1ccc2[se]n(-c3ccc(F)c([C@]4(C)CS(=O)(=O)N(C)C(N)=N4)c3)c(=O)c2c1
- pIC50 [2]: 5.83
- Activity [3]: Non-Toxic
- Activity [4]: Active
- V0 [1]: 161 µM/min

SMILES: CN1C(N)=N[C@](C)(c2cc(-n3[se]c4ccc(C(F)(F)F)cc4c3=O)ccc2F)CS1(=O)=O
- pIC50 [2]: 5.80
- Activity [3]: Non-Toxic
- Activity [4]: Active
- V0 [1]: 185 µM/min

SMILES: CN1C(N)=N[C@](C)(c2cc(-n3[se]c4ccc(F)cc4c3=O)ccc2F)CS1(=O)=O
- pIC50 [2]: 5.71
- Activity [3]: Non-Toxic
- Activity [4]: Active
- V0 [1]: 197 µM/min

SMILES: CN1C(C(=O)Nc2ccccn2)=C(O)c2ccccc2S1(=O)=O [PIROXICAM]
- Papp at 16 h [5]: 3.07 ×10⁻⁶ cm/s

SMILES: O=c1c2ccccc2[se]n1-c1ccccc1
- Activity [6]: Dose-Dependent Effect
- Activity [4]: Active
- Activity [7]: Dose-Dependent Effect
- Activity [8]: Dose-Dependent Effect
- inhibition [9]: inactive
- V0 [1]: 153 µM/min

SMILES: Cc1ccc2c(=O)n(-c3ccc(F)c([C@]4(C)CS(=O)(=O)N(C)C(N)=N4)c3)[se]c2c1
- V0 [1]: 130 µM/min

SMILES: Cc1ccc2[se]n(-c3ccc(F)c([C@]4(C)CS(=O)(=O)N(C)C(N)=N4)c3)c(=O)c2c1
- V0 [1]: 146 µM/min

SMILES: CN1C(N)=N[C@](C)(c2cc(-n3[se]c4ccccc4c3=O)ccc2F)CS1(=O)=O
- pIC50 [2]: 5.72
- Activity [3]: Non-Toxic
- Activity [4]: Active
- V0 [1]: 156 µM/min

SMILES: Clc1cccc(Cl)c1N=C1NCCN1 [CLONIDINE]
- Papp at 16 h [5]: 7.36 ×10⁻⁶ cm/s

SMILES: CN1C(N)=N[C@](C)(c2cc(-n3[se]c4cc(C(F)(F)F)ccc4c3=O)ccc2F)CS1(=O)=O
- V0 [1]: 145 µM/min

SMILES: CN1C(N)=N[C@](C)(c2cc(-n3[se]c4cc(F)c(F)cc4c3=O)ccc2F)CS1(=O)=O
- pIC50 [2]: 5.95
- Activity [3]: Non-Toxic
- Activity [4]: Active
- V0 [1]: 163 µM/min

SMILES: CN1C(N)=N[C@](C)(c2cc(NC(=O)c3ccc(F)cn3)ccc2F)CS1(=O)=O
- Activity [6]: inactive
- Activity [4]: Active
- Activity [8]: inactive
- V0 [1]: 29.4 µM/min

SMILES: COc1ccc2c(=O)n(-c3ccc(F)c([C@]4(C)CS(=O)(=O)N(C)C(N)=N4)c3)[se]c2c1
- pIC50 [2]: 5.81
- V0 [1]: 114 µM/min

SMILES: CCn1cc(C(=O)O)c(=O)c2cc(F)c(N3CCNC(C)C3)c(F)c21 (configuration not stated) [LOMEFLOXACIN]
- Papp at 16 h [5]: 2.59 ×10⁻⁶ cm/s

SMILES: CN1C(N)=N[C@](C)(c2cc(-n3[se]c4c(C(F)(F)F)cccc4c3=O)ccc2F)CS1(=O)=O
- V0 [1]: 180 µM/min

SMILES: C[C@]12CC[C@@H]3c4ccc(O)cc4CC[C@H]3[C@@H]1CC[C@@H]2O [ESTRADIOL]
- Papp at 16 h [5]: 12.2 ×10⁻⁶ cm/s

SMILES: Cc1cccc2c(=O)n(-c3ccc(F)c([C@]4(C)CS(=O)(=O)N(C)C(N)=N4)c3)[se]c12
- V0 [1]: 217 µM/min

Reference: ChEMBL document CHEMBL4811256, “Synthesis and evaluation of multi-target-directed ligands with BACE-1 inhibitory and Nrf2 agonist activities as potential agents against Alzheimer's disease” (Eur J Med Chem, 2021)
